Test results as given in ChEMBL document CHEMBL2057130, “Bruton's tyrosine kinase inhibitors: approaches to potent and selective inhibition, preclinical and clinical evaluation for inflammatory diseases and B cell malignancies” (J Med Chem, 2012).
pEC50, pIC50: −log10 of the molar value.

Tests used:
[1] = biological target: T1, Tyrosine-protein kinase BTK (Homo sapiens, UniProt Q06187)
Description: Inhibition of human BTK by enzymatic assay

[2] = test system: Splenocyte; test: Inhibition of mouse B-cell splenocyte activation by cell proliferation assay; type: functional, cell-based
[3] = test system: Blood; test: Inhibition of IgM-stimulated CD69 expression in human whole blood; type: functional, tissue-based
[4] = test system: Macrophage
Description: (§1) Inhibition of immobilized immune complex-stimulated TNFalpha production in macrophages

[5] = test system: Rattus norvegicus; test: Inhibition of hypersensitive immune responses in rat passive cutaneous anaphylaxis model at 30 mg/kg; type: functional
[6] = test system: Mus musculus; test: Inhibition of anti-IgD antibody stimulated CD69 expression in mouse CIA model dosed prophylactically at 3 to 100 mg/kg, po measured 24 hrs post dose; type: functional; settings: dose mg/kg 3-100
[7] = test system: Mast cell
Description: Inhibition of IgE-Fce cross-linking induced histamine release in mast cells

[8] = test system: Mus musculus; test: Antiarthritic effect in mouse CIA model assessed as inhibition of clinical arthritis scores dosed prophylactically through subcutaneous route; type: functional
[9] = Inhibition of anti-IgM-induced human B cell proliferation; type: functional, cell-based
[10] = Oral bioavailability in dosed rat; type: ADME, organism-based; settings: in vivo
[11] = test system: Blood; test: Inhibition of CD63 expression in human whole blood; type: functional, tissue-based
[12] = test system: Macrophage; test: cells
Description: as §1

[13] = Clearance in po dosed rat; type: ADME, organism-based; settings: in vivo
[14] = biological target: T1, Tyrosine-protein kinase BTK; test: Inhibition of BTK in human Ramos cells by FLIPR assay; type: cell-based

T1 sequence (Q06187 whole entry): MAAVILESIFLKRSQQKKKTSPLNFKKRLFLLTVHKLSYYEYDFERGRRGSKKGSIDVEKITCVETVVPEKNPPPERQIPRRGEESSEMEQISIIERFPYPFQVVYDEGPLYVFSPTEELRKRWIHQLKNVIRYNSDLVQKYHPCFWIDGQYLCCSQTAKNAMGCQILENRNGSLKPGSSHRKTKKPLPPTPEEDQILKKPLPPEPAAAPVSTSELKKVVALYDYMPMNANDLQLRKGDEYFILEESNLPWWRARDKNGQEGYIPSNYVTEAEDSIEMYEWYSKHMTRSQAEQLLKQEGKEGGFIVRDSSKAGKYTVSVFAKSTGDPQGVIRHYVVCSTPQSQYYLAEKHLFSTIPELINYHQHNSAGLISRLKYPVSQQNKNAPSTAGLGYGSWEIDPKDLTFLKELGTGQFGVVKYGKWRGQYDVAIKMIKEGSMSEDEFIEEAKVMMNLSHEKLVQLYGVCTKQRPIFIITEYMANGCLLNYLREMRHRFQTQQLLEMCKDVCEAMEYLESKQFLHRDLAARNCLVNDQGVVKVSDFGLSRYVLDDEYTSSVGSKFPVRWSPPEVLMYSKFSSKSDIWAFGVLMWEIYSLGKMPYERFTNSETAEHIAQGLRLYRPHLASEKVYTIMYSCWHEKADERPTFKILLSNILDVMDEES

O=C(CNc1ccccc1S(=O)(=O)N1CCCCC1)N[C@@H]1CCCN(c2ncnc3[nH]ccc23)C1 showed a pIC50 [1] greater than 7.00.

O=C(N[C@@H]1CCCN(c2ncnc3[nH]ccc23)C1)[C@H](Nc1ccccc1)C1CC1 gave a pIC50 [1] greater than 7.00.

Nc1ncnc2c1c(-c1ccc(Oc3ccccc3)cc1)nn2C1CCCC1 gave a pIC50 [1] of 8.09.

Work on CC(C)(C)c1ccc(C(=O)N[C@@H]2CCCN(c3nc(Nc4ccc(C(=O)N5CCNCC5)cc4)c4nccn4n3)C2)cc1 yielded a pIC50 [2] of 7.25.

For CN1CCN(c2ccc(Nc3cc(-c4cccc(-n5ccc6cc(C7CC7)cc(F)c6c5=O)c4CO)cn(C)c3=O)nc2)CC1, the pIC50 [3] was 7.77, the pIC50 [4] was 8.40 and the inhibition in vivo at 30 mg/kg [5] was 91%. For the same compound, the “inhibition (INH)” value [6] was 50% and the pIC50 [7] was 7.53.

For Cc1c(NC(=O)c2ccc(N(C)C)cc2)cccc1-c1nc(Nc2ccc(C(=O)N3CCOCC3)cc2)c2ncc(N)n2n1, the pIC50 [1] was 7.52 and the pIC50 [2] was 7.49.

For Cc1c(NC(=O)c2ccc(C(C)(C)C)cc2)cccc1-c1cn(C)c(=O)c(Nc2ccc(C(=O)N3CCOCC3)cc2)n1, the “inhibition (INH)” value [8] was greater than 97%, the pIC50 [9] was 7.38 and the bioavailability [10] was less than 1%. It also gave a pEC50 [11] of 5.92, a pIC50 [12] of 7.60 and a CL/F [13] of 86 mL/min/kg.

With C=CC(=O)N1CCCC(c2c(Cl)c(-c3ccc(Oc4ccc(Cl)c(Cl)c4)c(OC)c3)c3c(N)ncnn23)C1 (stereo not given) the pIC50 [2] was 6.89.

With Cc1c(-c2ccc(C(N)=O)c3[nH]c4cc(C(O)CO)ccc4c23)cccc1-n1cnc2ccc(F)cc2c1=O (stereo not given) the pIC50 [14] was 7.96.

In the case of CN1CCN(c2ccc(Nc3cc(-c4cccc(N5CCOc6cc(C(C)(C)C)ccc6C5=O)c4CO)cn(C)c3=O)nc2)CC1, the pIC50 ([3]; Homo sapiens, Blood) was 8.40.

In the case of CC(C)(C)c1ccc(C(=O)Nc2cccc(-c3cn4ccnc4c(Nc4ccccc4)n3)c2)cc1, the pIC50 [1] was 6.40.

Work on Cc1c(NC(=O)c2ccc(N(C)C)cc2)cccc1-c1nc(Nc2ccc(C(=O)N3CCOCC3)cc2)c2nccn2n1 yielded a pIC50 [1] of 6.84 and a pIC50 [2] of 6.85.

In the case of Cc1ccccc1Nc1nc2cc(F)c(N(C)C(=O)/C=C/CN(C)C)cc2n2cncc12, the pIC50 [2] was 8.47.

CN1CCC(=C2c3ccccc3C=Cc3ccccc32)CC1 [CYPROHEPTADINE] showed an inhibition in vivo at 30 mg/kg [5] of 69%.
